The values below come from patent US8394969B2, “Cyclic benzimidazole derivatives useful as anti-diabetic agents” (Merck Sharp & Dohme Corp., priority 2008, dated 2013).

The assay has as its target recombinant human AMPK complex 1 (containing α1β1γ1) (Homo sapiens, UniProt Q13131+Q9Y478). The assay is described as follows: […] (in vitro AMPK activation assay). The class given is biochemical. To be noted: for EC50: read-out: EC50; for Emax: read-out: % Maximum AMP Activation of human AMPK Complex 1.
Where [1] appears, read: recombinant human AMPK complex 1 (α1β1γ1).
Where [2] appears, read: recombinant human AMPK complex 1 (α1β1γ1), basal activity subtracted.

Structures can show the parent of a compound that is named as a salt. Where two headings read alike, the source gives them in different places.

recombinant human AMPK complex 1 (containing α1β1γ1), sequence (Q13131 whole entry): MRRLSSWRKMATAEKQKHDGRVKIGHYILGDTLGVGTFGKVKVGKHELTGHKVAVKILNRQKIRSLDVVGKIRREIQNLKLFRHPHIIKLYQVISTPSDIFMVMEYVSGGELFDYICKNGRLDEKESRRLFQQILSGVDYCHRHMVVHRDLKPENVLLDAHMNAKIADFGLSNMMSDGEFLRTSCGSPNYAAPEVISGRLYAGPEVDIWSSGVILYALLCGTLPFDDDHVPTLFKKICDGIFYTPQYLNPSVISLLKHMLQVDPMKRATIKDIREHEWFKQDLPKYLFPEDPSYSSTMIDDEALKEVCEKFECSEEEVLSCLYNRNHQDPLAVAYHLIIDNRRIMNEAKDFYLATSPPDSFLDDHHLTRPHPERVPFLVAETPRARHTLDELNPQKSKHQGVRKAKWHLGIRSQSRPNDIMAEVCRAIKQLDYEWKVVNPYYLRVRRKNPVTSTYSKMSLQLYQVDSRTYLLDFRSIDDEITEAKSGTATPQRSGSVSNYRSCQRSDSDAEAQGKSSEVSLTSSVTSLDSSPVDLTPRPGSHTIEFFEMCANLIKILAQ
recombinant human AMPK complex 1 (containing α1β1γ1), sequence (Q9Y478 whole entry): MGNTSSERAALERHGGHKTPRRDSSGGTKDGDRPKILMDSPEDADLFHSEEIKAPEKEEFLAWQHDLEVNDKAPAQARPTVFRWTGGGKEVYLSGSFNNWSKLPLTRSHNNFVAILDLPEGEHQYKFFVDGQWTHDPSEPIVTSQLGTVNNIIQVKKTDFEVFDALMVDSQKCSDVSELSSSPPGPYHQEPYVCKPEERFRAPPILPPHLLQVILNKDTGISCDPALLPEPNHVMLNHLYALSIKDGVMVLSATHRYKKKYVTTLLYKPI
recombinant human AMPK complex 1 (containing α1β1γ1), sequence (P54619 whole entry partner): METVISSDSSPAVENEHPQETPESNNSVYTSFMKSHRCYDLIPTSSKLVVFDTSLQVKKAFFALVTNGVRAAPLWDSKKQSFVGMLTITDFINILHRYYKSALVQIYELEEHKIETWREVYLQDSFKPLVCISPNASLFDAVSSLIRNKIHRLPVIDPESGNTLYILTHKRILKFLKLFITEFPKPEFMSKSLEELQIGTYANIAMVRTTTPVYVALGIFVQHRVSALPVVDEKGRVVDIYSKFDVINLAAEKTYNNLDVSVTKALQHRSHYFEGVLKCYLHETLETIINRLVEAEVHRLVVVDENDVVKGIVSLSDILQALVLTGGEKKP

Consider `Cc1ccc(Oc2nc3cc(-c4ccc5c(ccn5C)c4)c(Cl)cc3[nH]2)cc1C(=O)O` [Example 229, 5-{[6-chloro-5-(1-methyl-1H-indol-5-yl)-1H-benzimidazol-2-yl]oxy}-2-methylbenzoic acid], for which the EC50 under setting [1] was 3 nM.
`Cc1ccc(Oc2nc3cc(-c4ccc(C5CC5)cc4)c(Cl)cc3[nH]2)cc1C(=O)O` [Example 230, 5-{[6-chloro-5-(4-cyclopropylphenyl)-1H-benzimidazol-2-yl]oxy}-2-methylbenzoic acid]: the concentration giving a half-maximal response (EC50) under setting [1] stood at 9 nM.
For the compound `Cc1ccc(Oc2nc3cc(-c4ccc(N5CCCC5)cc4)c(Cl)cc3[nH]2)cc1C(=O)O` [Example 231, 5-{[6-chloro-5-(4-pyrrolidin-1-ylphenyl)-1H-benzimidazol-2-yl]oxy}-2-methylbenzoic acid], under setting [1], the 50% effective concentration (EC50) amounted to 7 nM.
Take `Cc1ccc(Oc2nc3cc(-c4ccc(-c5ccccc5O)cc4)c(F)cc3[nH]2)cc1C(=O)O` [Example 232, 5-{[6-fluoro-5-(2′-hydroxybiphenyl-4-yl)-1H-benzimidazol-2-yl]oxy}-2-methylbenzoic acid]: under setting [1], the EC50 stood at 1 nM.
Consider `Cc1ccc(Oc2nc3cc(-c4ccc5[nH]c(=O)ccc5c4)c(Cl)cc3[nH]2)cc1C(=O)O` [Example 233, 5-[6-Chloro-5-(2-oxo-1,2-dihydro-quinolin-6-yl)-1H-benzoimidazol-2-yloxy]-2-methyl-benzoic acid], for which the Emax under setting [2] was above 80%.
As for `Cc1ccc(Oc2nc3cc(-c4ccc5c(ccc(=O)n5C)c4)c(Cl)cc3[nH]2)cc1C(=O)O` [Example 234, 5-[6-Chloro-5-(1-methyl-2-oxo-1,2-dihydro-quinolin-6-yl)-1H-benzoimidazol-2-yloxy]-2-methyl-benzoic acid], the Emax under setting [2] is above 80%.
With `Cc1ccc(Oc2nc3cc(-c4ccc5c(c4)n(C)c(=O)n5C)c(Cl)cc3[nH]2)cc1C(=O)O` [Example 235, 5-(6-Chloro-1′,3′-dimethyl-2′-oxo-2′,3′-dihydro-1H,1′H-[5,5′]bibenzoimidazolyl-2-yloxy)-2-methyl-benzoic acid], the Emax under setting [2] is above 80%.
`Cc1ccc(Oc2nc3cc(-c4ccc(C(=O)N5CCC(O)CC5)cc4)c(Cl)cc3[nH]2)cc1C(=O)O` [Example 236, 5-{6-Chloro-5-[4-(4-hydroxy-piperidine-1-carbonyl)-phenyl]-1H-benzoimidazol-2-yloxy}-2-methyl-benzoic acid]: the EC50 under setting [1] was found to be 10 nM.
In the case of `Cc1ccc(Oc2nc3cc(-c4ccc5c(c4)CCNC5=O)c(Cl)cc3[nH]2)cc1C(=O)O` [Example 237, 5-[6-Chloro-5-(1-oxo-1,2,3,4-tetrahydro-isoquinolin-6-yl)-1H-benzoimidazol-2-yloxy]-2-methyl-benzoic acid], under setting [2], the Emax is above 80%.
`Cc1ccc(Oc2nc3cc(-c4ccc5ccnc(O)c5c4)c(Cl)cc3[nH]2)cc1C(=O)O` [Example 238, 5-[6-Chloro-5-(1-hydroxy-isoquinolin-7-yl)-1H-benzoimidazol-2-yloxy]-2-methyl-benzoic acid]: the Emax under setting [2] was above 80%.
Same read-out and setting: in the case of `Cc1ccc(Oc2nc3cc(-c4ccc(C(C)(C)C#N)cc4)c(Cl)cc3[nH]2)cc1C(=O)O` [Example 239, 5-{6-Chloro-5-[4-(cyano-dimethyl-methyl)-phenyl]-1H-benzoimidazol-2-yloxy}-2-methyl-benzoic acid] it was above 80%.
With `Cc1ccc(Oc2nc3cc(-c4ccc5c(C)n[nH]c5c4)c(Cl)cc3[nH]2)cc1C(=O)O` [Example 240, 5-[6-Chloro-5-(3-methyl-1H-indazol-6-yl)-1H-benzoimidazol-2-yloxy]-2-methyl-benzoic acid], under setting [2], the Emax was above 80%.
On to `Cc1ccc(Oc2nc3cc(-c4ccc(C(=O)N(C)C)cc4)c(Cl)cc3[nH]2)cc1C(=O)O` [Example 241, 5-[6-Chloro-5-(4-dimethylcarbamoyl-phenyl)-1H-benzoimidazol-2-yloxy]-2-methyl-benzoic acid], for which the Emax under setting [2] was above 80%.
`Cc1ccc(Oc2nc3cc(-c4ccc(C(N)=O)cc4)c(Cl)cc3[nH]2)cc1C(=O)O` [Example 242, 5-[5-(4-Carbamoyl-phenyl)-6-chloro-1H-benzoimidazol-2-yloxy]-2-methyl-benzoic acid]: the Emax under setting [2] was above 80%.
As for `Cn1ccc2cc(-c3cc4nc(Oc5ccc(CC(=O)O)cc5)[nH]c4cc3Cl)ccc21` [Example 243, {4-[6-Chloro-5-(1-methyl-1H-indol-5-yl)-1H-benzoimidazol-2-yloxy]-phenyl}-acetic acid], the Emax under setting [2] was above 80%.
The same measure, in the same setting: the value for `CN1CCOc2cc(-c3cc4nc(Oc5ccc(CC(=O)O)cc5)[nH]c4cc3Cl)ccc21` [Example 244, {4-[6-Chloro-5-(4-methyl-3,4-dihydro-2H-benzo[1,4]oxazin-7-yl)-1H-benzoimidazol-2-yloxy]-phenyl}-acetic acid] was above 80%; that for `COc1ccc2cc(-c3cc4nc(Oc5ccc(CC(=O)O)cc5)[nH]c4cc3Cl)ccc2c1` [Example 245, {4-[6-Chloro-5-(6-methoxy-naphthalen-2-yl)-1H-benzoimidazol-2-yloxy]-phenyl}-acetic acid] was above 80%; that for `Cc1ccc(Oc2nc3cc(-c4ccc(-c5ccn[nH]5)cc4)c(F)cc3[nH]2)cc1C(=O)O` [Example 246, 5-{6-Fluoro-5-[4-(2H-pyrazol-3-yl)-phenyl]-1H-benzoimidazol-2-yloxy}-2-methyl-benzoic acid] was above 80%.
For `Cc1ccc(Oc2nc3cc(-c4ccc(N5CCOCC5)cc4)c(F)cc3[nH]2)cc1C(=O)O` [Example 247, 5-[6-Fluoro-5-(4-morpholin-4-yl-phenyl)-1H-benzoimidazol-2-yloxy]-2-methyl-benzoic acid], under setting [2], the Emax is above 80%.
The same measure, in the same setting: the value for `Cc1ccc(Oc2nc3cc(-c4ccc5c(ccn5C)c4)c(F)cc3[nH]2)cc1C(=O)O` [Example 249, 5-[6-Fluoro-5-(1-methyl-1H-indol-5-yl)-1H-benzoimidazol-2-yloxy]-2-methyl-benzoic acid] was above 80%; that for `Cc1ccc(Oc2nc3cc(-c4cnc(N5CCCC5)cn4)c(F)cc3[nH]2)cc1C(=O)O` [Example 250, 5-[6-Fluoro-5-(5-pyrrolidin-1-yl-pyrazin-2-yl)-1H-benzoimidazol-2-yloxy]-2-methyl-benzoic acid] was above 80%.
The same measure, in the same setting: the value for `Cc1ccc(Oc2nc3cc(-c4ccc5c(ccn5CC5CC5)c4)c(Cl)cc3[nH]2)cc1C(=O)O` [Example 252, 5-[6-Chloro-5-(1-cyclopropylmethyl-1H-indol-5-yl)-1H-benzoimidazol-2-yloxy]-2-methyl-benzoic acid] was above 80%.
Consider `Cc1ccc(Oc2nc3cc(-c4ccc5c(ccn5C(C)C)c4)c(Cl)cc3[nH]2)cc1C(=O)O` [Example 253, 5-[6-Chloro-5-(1-isopropyl-1H-indol-5-yl)-1H-benzoimidazol-2-yloxy]-2-methyl-benzoic acid], for which the Emax is above 80%.
As to `CCn1ccc2cc(-c3cc4nc(Oc5ccc(C)c(C(=O)O)c5)[nH]c4cc3Cl)ccc21` [Example 254, 5-[6-Chloro-5-(1-ethyl-1H-indol-5-yl)-1H-benzoimidazol-2-yloxy]-2-methyl-benzoic acid], under setting [2], the Emax is above 80%.
On to `COc1cc(-c2cc3nc(Oc4ccc(C)c(C(=O)O)c4)[nH]c3cc2Cl)ccc1O` [Example 255, 2-(3-carboxy-4-methylphenoxy)-6-chloro-5-(4-hydroxy-3-methoxyphenyl)-1H-3,1-benzimidazol-3-ium trifluoroacetate], for which the Emax under setting [2] is above 80%.
Still for that read-out and setting: in the case of `Cc1ccc(Oc2nc3cc(-c4cnc(N5CCCC5)nc4)c(Cl)cc3[nH]2)cc1C(=O)O` [Example 257, 2-(3-carboxy-4-methylphenoxy)-6-chloro-5-(2-pyrrolidin-1-yl-pyrimidin-5-yl)-1H-3,1-benzimidazol-3-ium trifluoroacetate] it was above 80%; in that of `Cc1ccc(Oc2nc3cc(-c4ccc(C5CCCC5)cc4)c(Cl)cc3[nH]2)cc1C(=O)O` [Example 258, 2-(3-carboxy-4-methylphenoxy)-6-chloro-5-(4-cyclopentylphenyl)-1H-3,1-benzimidazol-3-ium trifluoroacetate], above 80%; in that of `COc1ccc(-c2cc3nc(Oc4ccc(C)c(C(=O)O)c4)[nH]c3cc2Cl)cc1OC` [Example 260, 2-(3-carboxy-4-methylphenoxy)-6-chloro-5-(3,4-dimethoxyphenyl)-1H-3,1-benzimidazol-3-ium trifluoroacetate], above 80%.
Same read-out and setting: the value for `Cc1cc2cc(-c3cc4nc(Oc5ccc(C)c(C(=O)O)c5)[nH]c4cc3Cl)ccc2[nH]1` [Example 261, 5-{[6-chloro-5-(2-methyl-1H-indol-5-yl)-1H-benzimidazol-2-yl]oxy}-2-methylbenzoic acid] was above 80%.
On to `Cc1ccc(Oc2nc3cc(-c4ccc(C5(CO)CC5)cc4)c(Cl)cc3[nH]2)cc1C(=O)O` [Example 262, 5-[(6-chloro-5-{4-[1-(hydroxymethyl)cyclopropyl]phenyl}-1H-benzimidazol-2-yl)oxy]-2-methylbenzoic acid], for which the EC50 under setting [1] was found to be 3 nM.
For the compound `Cc1ccc(Oc2nc3cc(-c4ccc5c(ccn5CCO)c4)c(Cl)cc3[nH]2)cc1C(=O)O` [Example 263, 5-({6-chloro-5-[1-(2-hydroxyethyl)-1H-indol-5-yl]-1H-benzimidazol-2-yl}oxy)-2-methylbenzoic acid], the Emax under setting [2] was above 80%.
Same read-out and setting: in the case of `Cc1ccc(Oc2nc3cc(-c4ccc(C5(O)CC5)cc4)c(Cl)cc3[nH]2)cc1C(=O)O` [Example 264, 5-{6-Chloro-5-[4-(1-hydroxy-cyclopropyl)-phenyl]-1H-benzoimidazol-2-yloxy}-2-methyl-benzoic acid] it was above 80%.
Same read-out and setting: in the case of `Cc1ccc(Oc2nc3cc(-c4ccc5c(C)noc5c4)c(Cl)cc3[nH]2)cc1C(=O)O` [Example 265, 5-[6-chloro-5-(3-methyl-benzo[d]isoxazol-6-yl)-1H-benzoimidazol-2-yloxy]-2-methyl-benzoic acid] it was above 80%.
As to `Cc1ccc(Oc2nc3cc(-c4ccc5c(c4)CCC5=O)c(Cl)cc3[nH]2)cc1C(=O)O` [Example 266, 5-[6-Chloro-5-(1-oxo-indan-5-yl)-1H-benzoimidazol-2-yloxy]-2-methyl-benzoic acid], the Emax under setting [2] is above 80%.
